What is called IC50 is the point on the concentration scale where inhibition reaches its midpoint. Read a low IC50 as greater potency in that assay.

13 molecules from BindingDB's records for doi:10.1021/jm990236h (University of Michigan, 2000) can be followed below.

One experiment in a line: Antiviral activity was evaluated by Reverse transcriptase activity in cells acutely infected with HIV-1.
`CCCCCCCCCC(=O)NC1=NN(C)c2ncnc3c2c1cn3C1O[C@H](CO)[C@@H](O)[C@H]1O` (stereo partly drawn) showed a 50% inhibitory concentration (IC50) of 250 nM.
Still for that read-out and setting: the figure for `CCCCCCCCC(=O)NC1=NN(C)c2ncnc3c2c1cn3C1O[C@H](CO)[C@@H](O)[C@H]1O` (stereo partly drawn) is 800 nM.
For `CCCCCCCCCCCC(=O)NC1=NN(C)c2ncnc3c2c1cn3C1O[C@H](CO)[C@@H](O)[C@H]1O` (stereo partly drawn), the IC50 was 1000 nM.
As to `CCCCCCCC(=O)NC1=NN(C)c2ncnc3c2c1cn3C1O[C@H](CO)[C@@H](O)[C@H]1O` (stereo partly drawn), the IC50 was found to be 100 nM.

A short description of a further experiment: Antiviral activity was evaluated by RT (reverse transcriptase) activity in cells acutely infected with HIV-1.
Molecule `CN1N=C(NC(=O)c2ccccc2)c2cn(C3O[C@H](CO)[C@@H](O)[C@H]3O)c3ncnc1c23` (stereo partly drawn) displayed an IC50 above 100000 nM.
Take `CC(C)C(=O)NC1=NN(C)c2ncnc3c2c1cn3C1O[C@H](CO)[C@@H](O)[C@H]1O` (stereo partly drawn): the IC50 worked out at 8000 nM.
On the same count and under the same terms, with `CCCCCC(=O)NC1=NN(C)c2ncnc3c2c1cn3C1O[C@H](CO)[C@@H](O)[C@H]1O` (stereo partly drawn) the figure was 350 nM; with `CCCC(=O)NC1=NN(C)c2ncnc3c2c1cn3C1O[C@H](CO)[C@@H](O)[C@H]1O` (stereo partly drawn), 500 nM; with `CCC(=O)NC1=NN(C)c2ncnc3c2c1cn3C1O[C@H](CO)[C@@H](O)[C@H]1O` (stereo partly drawn), 8400 nM.
`CC(=O)NC1=NN(C)c2ncnc3c2c1cn3C1O[C@H](CO)[C@@H](O)[C@H]1O` (stereo partly drawn) yielded an IC50 of 6800 nM.
Same read-out and setting: the figure for `CCCCC(=O)NC1=NN(C)c2ncnc3c2c1cn3C1O[C@H](CO)[C@@H](O)[C@H]1O` (stereo partly drawn) is 800 nM; for `CCCCCCC(=O)NC1=NN(C)c2ncnc3c2c1cn3C1O[C@H](CO)[C@@H](O)[C@H]1O` (stereo partly drawn) it is 35 nM.
The molecule `CN1N=C(NC(=O)C(C)(C)C)c2cn(C3O[C@H](CO)[C@@H](O)[C@H]3O)c3ncnc1c23` (stereo partly drawn) returned an IC50 above 100000 nM.
